The source of these data is US11213514B2, “Alpha-1-adrenergic receptor agonist therapy” (The Regents of the University of California, priority 2016, dated 2022).

Structures are written as SMILES.

One data set concerns women. The conditions noted are these: cited from earlier work.
The subject of a further data set is rabbits. The conditions noted are these: 10 μg/kg; cited from earlier work.
The subject of a further data set is ERK. The data set can be described thus: ERK activation in neonatal rat ventricular myocytes (pERK/ERK Western blot). In kind it is cell-based. The conditions noted are these: Rattus norvegicus, Ventricular myocyte; uninjured NRVMs, 15 minutes, propranolol pre-treatment; read-out: EC50, ERK phosphorylation. The text has this: FIGS. 4A-4F. […] The reaction was stopped immediately and lysates were blotted for total and phospho-ERK (pERK). FIG. 4A. Representative Western blot. FIG. 4B. […] FIG. 4C. Summary of pERK/ERK for experiments using 5 different NRVM isolations. The average pERK/ERK ratio for each experiment was derived from at least 2 individual wells and normalized to the pERK/ERK ratio for vehicle treated NRVMs. FIG. 4D and FIG. 4E. […] Heart lysates were blotted for pERK and ERK. Results were compared using one way ANOVA with Tukey post-test. FIG. 4F.
Dabuzalgron protects neonatal rat ventricular myocytes from cell death due to doxorubicin. […] (FIG. 4C).
Female Sprague-Dawley rats were from Charles River. NRVMs were isolated as previously described.7 Briefly, hearts from 1-2 day old rat pups were minced, digested serially in collagenase (Worthington)-containing solution, filtered, then pre-plated to exclude non-myocyotes. NRVMs were then plated on laminin-coated dishes in DMEM with 5% fetal bovine serum (Sigma F2442) for 24 hours. Experiments were carried out after 36-96 hours of serum starvation in the presence of insulin, transferrin, and BrdU. […]
All results are presented as mean±SEM. […] EC50 for ERK activation was calculated using sigmoidal dose-response analysis (Prism).

Where [1] appears, read: human, 1.5 mg by mouth twice daily.

`Cc1c(OCC2=NCCN2)ccc(Cl)c1NS(C)(=O)=O` [dabuzalgron, N-[6-chloro-3-(4,5-dihydro-1H-imidazol-2-ylmethoxy)-2-methylphenyl]methanesulfonamide]: in the data set on women (setting [1]), the BP result was “did not alter” and the HR entry is listed as “did not alter”. In the data set with women (interim analysis of the Phase 2 trials), the “difference in urinary incontinence between dabuzalgron and placebo groups” value is given as “no clinically meaningful difference”. The “changes in BP” value with women (subjects who received dabuzalgron in any of these trials) is given as “no significant changes”. For the same compound, in the data set on women (total of 1,223 women, Phase 1, two Phase 2 trials and open-label study), the tolerability entry is given as “well tolerated”. The “effect on BP” value in the data set on rabbits is on record as “no effect”. Also, in the data set with ERK, the EC50 stood at 480 nM.
